Reference: US12227500B2, “Substituted pyrrolo[2,3-b]pyridines for suppressing toxic endoplasmic reticulum stress” (THE TRUSTEES OF COLUMBIA UNIVERSITY IN THE CITY OF NEW YORK, priority 2018, dated 2025)

Assays:
Assay in all cases: Radiolabeled ATP kinase assay, panel of 371 kinases (Table S6)
Format in all cases: biochemical
[1] = target: T1, panel of 371 human kinases (Homo sapiens, UniProt O75582); conditions: MSK1/RPS6KA5; 0.1 μM; 10 μM ATP; read-out: % Enzyme Activity (relative to DMSO controls)
T1 construct: purchased Reaction Biology Corp
Excerpt: (§1) ; FIG. 38C). […]. Further targeted analyses, such as genetic knock-down or knock-out, may be warranted to parse the role of these additional kinases in our model of neurodegeneration.

[2] = target: T2, panel of 371 human kinases (Homo sapiens, UniProt P10398); conditions: ARAF; 0.1 μM; 10 μM ATP; read-out: % Enzyme Activity (relative to DMSO controls)
T2 construct: purchased Reaction Biology Corp
Excerpt: as §1

[3] = target: T3, panel of 371 human kinases (Homo sapiens, UniProt P22694); conditions: PKAcb; 0.1 μM; 10 μM ATP; read-out: % Enzyme Activity (relative to DMSO controls)
T3 construct: purchased Reaction Biology Corp
Excerpt: as §1

[4] = target: T4, panel of 371 human kinases (Homo sapiens, UniProt P32298); conditions: GRK4; 0.1 μM; 10 μM ATP; read-out: % Enzyme Activity (relative to DMSO controls)
T4 construct: purchased Reaction Biology Corp
T4 sequence (P32298 whole entry): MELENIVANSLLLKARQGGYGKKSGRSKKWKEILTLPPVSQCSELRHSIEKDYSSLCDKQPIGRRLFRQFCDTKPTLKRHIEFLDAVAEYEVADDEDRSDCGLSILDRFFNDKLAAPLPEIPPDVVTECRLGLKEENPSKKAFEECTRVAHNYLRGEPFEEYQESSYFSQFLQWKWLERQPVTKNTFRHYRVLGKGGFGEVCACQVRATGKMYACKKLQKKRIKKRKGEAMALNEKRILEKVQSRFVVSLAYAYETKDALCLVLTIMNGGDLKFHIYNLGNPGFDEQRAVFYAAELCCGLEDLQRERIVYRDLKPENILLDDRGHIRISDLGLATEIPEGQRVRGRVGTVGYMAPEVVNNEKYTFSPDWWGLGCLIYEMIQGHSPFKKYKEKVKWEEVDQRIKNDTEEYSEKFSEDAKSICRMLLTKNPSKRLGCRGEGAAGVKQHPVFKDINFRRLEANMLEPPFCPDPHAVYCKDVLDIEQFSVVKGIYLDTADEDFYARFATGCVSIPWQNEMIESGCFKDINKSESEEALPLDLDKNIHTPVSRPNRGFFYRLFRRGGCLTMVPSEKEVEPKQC
Excerpt: as §1

[5] = target: T5, panel of 371 human kinases (Homo sapiens, UniProt P48730); conditions: CK1d; 0.1 μM; 10 μM ATP; read-out: % Enzyme Activity (relative to DMSO controls)
T5 construct: purchased Reaction Biology Corp
Excerpt: as §1

[6] = target: T6, panel of 371 human kinases (Homo sapiens, UniProt P53667); conditions: LIMK1; 0.1 μM; 10 μM ATP; read-out: % Enzyme Activity (relative to DMSO controls)
T6 construct: purchased Reaction Biology Corp
Excerpt: as §1

[7] = target: T7, panel of 371 human kinases (Homo sapiens, UniProt P57059); conditions: SIK1; 0.1 μM; 10 μM ATP; read-out: % Enzyme Activity (relative to DMSO controls)
T7 construct: purchased Reaction Biology Corp
T7 sequence (P57059 whole entry): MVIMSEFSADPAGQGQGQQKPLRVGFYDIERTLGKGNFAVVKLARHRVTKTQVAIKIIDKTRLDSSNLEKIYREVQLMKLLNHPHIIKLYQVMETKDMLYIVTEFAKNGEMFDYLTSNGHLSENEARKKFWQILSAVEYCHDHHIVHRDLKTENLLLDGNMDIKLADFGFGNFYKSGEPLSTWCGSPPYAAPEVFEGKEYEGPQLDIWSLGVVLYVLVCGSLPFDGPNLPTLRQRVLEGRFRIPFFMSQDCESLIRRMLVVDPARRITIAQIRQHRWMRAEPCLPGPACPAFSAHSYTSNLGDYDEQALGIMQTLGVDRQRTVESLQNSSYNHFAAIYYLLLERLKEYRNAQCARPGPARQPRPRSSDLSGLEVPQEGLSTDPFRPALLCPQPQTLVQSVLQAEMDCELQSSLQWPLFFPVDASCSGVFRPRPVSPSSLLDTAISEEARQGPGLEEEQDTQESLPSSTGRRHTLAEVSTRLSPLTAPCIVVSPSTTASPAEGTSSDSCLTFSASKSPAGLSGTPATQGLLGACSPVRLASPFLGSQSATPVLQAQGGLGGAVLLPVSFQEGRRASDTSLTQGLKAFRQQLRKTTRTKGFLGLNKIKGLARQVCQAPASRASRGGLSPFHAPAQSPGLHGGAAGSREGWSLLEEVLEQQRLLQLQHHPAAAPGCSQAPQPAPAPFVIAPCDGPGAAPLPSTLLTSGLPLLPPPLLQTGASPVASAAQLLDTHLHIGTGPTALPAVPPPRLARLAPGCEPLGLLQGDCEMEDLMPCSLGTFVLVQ
Excerpt: as §1

[8] = target: T8, panel of 371 human kinases (Homo sapiens, UniProt Q12852); conditions: DLK/MAP3K12; 0.1 μM; 10 μM ATP; read-out: % Enzyme Activity (relative to DMSO controls)
T8 construct: purchased Reaction Biology Corp
Excerpt: as §1

[9] = target: T9, panel of 371 human kinases (Homo sapiens, UniProt Q13237); conditions: PKG2/PRKG2; 0.1 μM; 10 μM ATP; read-out: % Enzyme Activity (relative to DMSO controls)
T9 construct: purchased Reaction Biology Corp
Excerpt: as §1

[10] = target: T10, panel of 371 human kinases (Homo sapiens, UniProt Q13555); conditions: CAMK2g; 0.1 μM; 10 μM ATP; read-out: % Enzyme Activity (relative to DMSO controls)
T10 construct: purchased Reaction Biology Corp
Excerpt: as §1

[11] = target: T11, panel of 371 human kinases (Homo sapiens, UniProt Q13873); conditions: BMPR2; 0.1 μM; 10 μM ATP; read-out: % Enzyme Activity (relative to DMSO controls)
T11 construct: purchased Reaction Biology Corp
Excerpt: as §1

[12] = target: T12, panel of 371 human kinases (Homo sapiens, UniProt Q14164); conditions: IKKe/IKBKE; 0.1 μM; 10 μM ATP; read-out: % Enzyme Activity (relative to DMSO controls)
T12 construct: purchased Reaction Biology Corp
Excerpt: as §1

[13] = target: T13, panel of 371 human kinases (Homo sapiens, UniProt Q6IQ55); conditions: TTBK2; 0.1 μM; 10 μM ATP; read-out: % Enzyme Activity (relative to DMSO controls)
T13 construct: purchased Reaction Biology Corp
Excerpt: as §1

[14] = target: T14, panel of 371 human kinases (Homo sapiens, UniProt Q86YV6); conditions: MYLK4; 0.1 μM; 10 μM ATP; read-out: % Enzyme Activity (relative to DMSO controls)
T14 construct: purchased Reaction Biology Corp
T14 sequence (Q86YV6 whole entry): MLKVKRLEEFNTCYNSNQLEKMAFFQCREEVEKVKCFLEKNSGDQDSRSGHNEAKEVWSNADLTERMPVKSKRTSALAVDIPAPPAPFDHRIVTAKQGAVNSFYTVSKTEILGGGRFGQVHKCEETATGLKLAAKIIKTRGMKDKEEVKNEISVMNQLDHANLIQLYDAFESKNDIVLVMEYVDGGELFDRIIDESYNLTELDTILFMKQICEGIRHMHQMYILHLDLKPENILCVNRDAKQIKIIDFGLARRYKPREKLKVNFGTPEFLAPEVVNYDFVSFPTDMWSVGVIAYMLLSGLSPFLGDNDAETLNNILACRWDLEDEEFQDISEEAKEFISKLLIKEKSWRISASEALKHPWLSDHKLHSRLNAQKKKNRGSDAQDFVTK
Excerpt: as §1

[15] = target: T15, panel of 371 human kinases (Homo sapiens, UniProt Q8N4C8); conditions: for remaining activity at 0.1 µM: MINK/MINK1, 10 μM ATP, read-out: % Enzyme Activity (relative to DMSO controls)
T15 construct: purchased Reaction Biology Corp
T15 sequence (Q8N4C8 whole entry): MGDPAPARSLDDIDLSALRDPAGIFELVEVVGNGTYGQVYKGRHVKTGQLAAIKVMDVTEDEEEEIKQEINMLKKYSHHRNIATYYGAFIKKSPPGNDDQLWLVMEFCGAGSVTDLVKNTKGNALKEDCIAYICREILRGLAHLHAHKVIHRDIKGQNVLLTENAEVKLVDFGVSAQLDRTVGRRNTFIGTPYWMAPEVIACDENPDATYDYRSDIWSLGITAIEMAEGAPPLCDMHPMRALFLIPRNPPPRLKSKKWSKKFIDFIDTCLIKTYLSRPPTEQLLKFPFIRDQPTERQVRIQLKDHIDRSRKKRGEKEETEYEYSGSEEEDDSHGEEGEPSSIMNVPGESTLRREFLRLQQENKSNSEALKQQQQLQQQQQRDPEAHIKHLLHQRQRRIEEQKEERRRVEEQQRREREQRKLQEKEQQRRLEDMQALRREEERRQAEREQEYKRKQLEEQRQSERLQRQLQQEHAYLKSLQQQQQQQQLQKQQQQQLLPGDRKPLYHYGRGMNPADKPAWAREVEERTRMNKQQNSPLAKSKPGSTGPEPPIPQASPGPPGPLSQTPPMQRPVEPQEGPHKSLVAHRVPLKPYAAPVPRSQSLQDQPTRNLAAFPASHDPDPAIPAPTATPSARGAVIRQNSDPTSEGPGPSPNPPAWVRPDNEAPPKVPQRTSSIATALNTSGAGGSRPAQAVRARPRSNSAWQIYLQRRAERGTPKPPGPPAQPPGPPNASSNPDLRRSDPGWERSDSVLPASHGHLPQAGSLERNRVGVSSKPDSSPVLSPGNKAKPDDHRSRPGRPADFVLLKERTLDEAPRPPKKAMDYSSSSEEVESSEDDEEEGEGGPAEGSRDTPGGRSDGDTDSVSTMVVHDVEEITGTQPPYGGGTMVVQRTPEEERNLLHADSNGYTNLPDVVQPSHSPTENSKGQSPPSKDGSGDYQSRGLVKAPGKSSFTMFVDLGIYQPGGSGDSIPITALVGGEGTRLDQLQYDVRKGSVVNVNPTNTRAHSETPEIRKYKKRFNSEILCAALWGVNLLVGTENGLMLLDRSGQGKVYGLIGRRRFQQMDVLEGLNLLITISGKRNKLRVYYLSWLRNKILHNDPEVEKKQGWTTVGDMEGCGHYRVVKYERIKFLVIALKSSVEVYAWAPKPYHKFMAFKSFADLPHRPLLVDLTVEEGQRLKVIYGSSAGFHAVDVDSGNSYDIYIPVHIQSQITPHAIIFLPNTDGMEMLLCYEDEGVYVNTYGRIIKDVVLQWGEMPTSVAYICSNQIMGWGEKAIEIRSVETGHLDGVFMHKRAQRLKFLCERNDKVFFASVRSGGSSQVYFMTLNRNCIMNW
Excerpt: as §1

[16] = target: T16, panel of 371 human kinases (Homo sapiens, UniProt Q8WXR4); conditions: MYO3b; 0.1 μM; 10 μM ATP; read-out: % Enzyme Activity (relative to DMSO controls)
T16 construct: purchased Reaction Biology Corp
Excerpt: as §1

[17] = target: T17, panel of 371 human kinases (Homo sapiens, UniProt Q96PF2); conditions: TSSK2; 0.1 μM; 10 μM ATP; read-out: % Enzyme Activity (relative to DMSO controls)
T17 construct: purchased Reaction Biology Corp
Excerpt: as §1

[18] = target: T18, panel of 371 human kinases (Homo sapiens, UniProt Q9H093); conditions: SNARK/NUAK2; 0.1 μM; 10 μM ATP; read-out: % Enzyme Activity (relative to DMSO controls)
T18 construct: purchased Reaction Biology Corp
Excerpt: as §1

[19] = target: T19, panel of 371 human kinases (Homo sapiens, UniProt Q9HBH9); conditions: MNK2; 0.1 μM; 10 μM ATP; read-out: % Enzyme Activity (relative to DMSO controls)
T19 construct: purchased Reaction Biology Corp
Excerpt: as §1

[20] = target: T20, panel of 371 human kinases (Homo sapiens, UniProt Q9NY57); conditions: STK32B/YANK2; 0.1 μM; 10 μM ATP; read-out: % Enzyme Activity (relative to DMSO controls)
T20 construct: purchased Reaction Biology Corp
Excerpt: as §1

[21] = target: T21, panel of 371 human kinases (Homo sapiens, UniProt Q9P289); conditions: MST4; 0.1 μM; 10 μM ATP; read-out: % Enzyme Activity (relative to DMSO controls)
T21 construct: purchased Reaction Biology Corp
Excerpt: as §1

[22] = target: T22, panel of 371 human kinases (Homo sapiens, UniProt Q9UK32); conditions: RSK4; 0.1 μM; 10 μM ATP; read-out: % Enzyme Activity (relative to DMSO controls)
T22 construct: purchased Reaction Biology Corp
T22 sequence (Q9UK32 whole entry): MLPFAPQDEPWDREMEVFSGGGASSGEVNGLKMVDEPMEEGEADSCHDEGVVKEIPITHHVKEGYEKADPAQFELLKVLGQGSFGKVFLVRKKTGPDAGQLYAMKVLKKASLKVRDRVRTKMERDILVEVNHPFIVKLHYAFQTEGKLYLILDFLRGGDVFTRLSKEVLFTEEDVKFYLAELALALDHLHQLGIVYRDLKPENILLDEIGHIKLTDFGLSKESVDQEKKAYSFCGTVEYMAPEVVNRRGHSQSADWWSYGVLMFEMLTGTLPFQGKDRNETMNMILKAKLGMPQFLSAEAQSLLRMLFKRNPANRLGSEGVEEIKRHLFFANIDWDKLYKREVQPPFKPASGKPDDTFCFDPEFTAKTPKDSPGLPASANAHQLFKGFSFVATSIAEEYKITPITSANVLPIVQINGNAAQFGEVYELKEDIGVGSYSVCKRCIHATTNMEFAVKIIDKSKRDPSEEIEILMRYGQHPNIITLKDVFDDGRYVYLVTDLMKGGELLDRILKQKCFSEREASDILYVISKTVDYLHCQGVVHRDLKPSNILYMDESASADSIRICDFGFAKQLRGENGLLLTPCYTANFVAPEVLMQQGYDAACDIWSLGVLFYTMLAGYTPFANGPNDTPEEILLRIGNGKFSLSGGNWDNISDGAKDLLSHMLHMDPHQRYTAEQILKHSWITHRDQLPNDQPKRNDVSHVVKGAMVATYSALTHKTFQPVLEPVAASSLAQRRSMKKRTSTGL
Excerpt: as §1

[23] = target: T23, panel of 371 human kinases (Homo sapiens, UniProt Q9UL54); conditions: TAOK2/TAO1; 0.1 μM; 10 μM ATP; read-out: % Enzyme Activity (relative to DMSO controls)
T23 construct: purchased Reaction Biology Corp
T23 sequence (Q9UL54 whole entry): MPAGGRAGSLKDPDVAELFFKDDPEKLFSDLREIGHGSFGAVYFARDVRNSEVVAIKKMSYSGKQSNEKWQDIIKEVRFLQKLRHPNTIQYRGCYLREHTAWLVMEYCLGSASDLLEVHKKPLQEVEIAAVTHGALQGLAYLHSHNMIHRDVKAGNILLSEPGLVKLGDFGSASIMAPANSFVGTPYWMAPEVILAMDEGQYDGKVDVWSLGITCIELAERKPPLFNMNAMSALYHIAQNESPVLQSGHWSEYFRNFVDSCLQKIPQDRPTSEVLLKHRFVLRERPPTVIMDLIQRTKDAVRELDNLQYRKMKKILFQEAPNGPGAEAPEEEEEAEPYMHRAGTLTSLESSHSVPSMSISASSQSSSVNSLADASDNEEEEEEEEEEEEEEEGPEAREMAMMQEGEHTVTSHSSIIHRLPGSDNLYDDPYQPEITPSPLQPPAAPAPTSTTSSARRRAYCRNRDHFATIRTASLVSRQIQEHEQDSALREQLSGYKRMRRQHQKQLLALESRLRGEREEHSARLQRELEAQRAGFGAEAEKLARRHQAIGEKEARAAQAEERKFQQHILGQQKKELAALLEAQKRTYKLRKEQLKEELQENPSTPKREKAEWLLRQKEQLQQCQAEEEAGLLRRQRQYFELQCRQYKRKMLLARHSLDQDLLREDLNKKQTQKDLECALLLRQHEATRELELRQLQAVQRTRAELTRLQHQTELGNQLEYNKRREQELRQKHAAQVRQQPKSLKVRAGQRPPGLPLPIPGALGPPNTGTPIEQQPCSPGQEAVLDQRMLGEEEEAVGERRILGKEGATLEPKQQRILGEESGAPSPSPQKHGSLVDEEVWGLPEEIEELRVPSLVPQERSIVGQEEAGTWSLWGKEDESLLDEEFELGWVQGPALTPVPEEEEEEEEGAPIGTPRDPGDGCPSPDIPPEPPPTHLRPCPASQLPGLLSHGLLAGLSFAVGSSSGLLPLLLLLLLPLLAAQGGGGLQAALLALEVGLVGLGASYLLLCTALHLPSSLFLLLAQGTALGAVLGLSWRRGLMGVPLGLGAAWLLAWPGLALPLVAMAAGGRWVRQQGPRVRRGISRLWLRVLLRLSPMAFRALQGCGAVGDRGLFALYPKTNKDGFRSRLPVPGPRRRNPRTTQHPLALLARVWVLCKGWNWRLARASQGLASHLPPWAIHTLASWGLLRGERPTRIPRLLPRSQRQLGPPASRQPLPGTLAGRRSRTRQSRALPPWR
Excerpt: as §1

[24] = target: T24, panel of 371 human kinases (Homo sapiens, UniProt Q9Y3S1); conditions: WNK2; 0.1 μM; 10 μM ATP; read-out: % Enzyme Activity (relative to DMSO controls)
T24 construct: purchased Reaction Biology Corp
Excerpt: as §1

CN1CCN(Cc2ccc(-c3cnc4[nH]cc(-c5ccc6[nH]ccc6c5)c4c3)cc2)CC1 [Compound 1, 3-(1H-Indol-5-yl)-5-(4-((4-methylpiperazin-1-yl)methyl)phenyl)-1H-pyrrolo[2,3-b]pyridine, reference compound]
remaining activity at 0.1 µM [1]: 101% | remaining activity at 0.1 µM [2]: 108% | remaining activity at 0.1 µM [3]: 106% | remaining activity at 0.1 µM [4]: 106% | remaining activity at 0.1 µM [5]: 90% | remaining activity at 0.1 µM [6]: 112% | remaining activity at 0.1 µM [7]: 102% | remaining activity at 0.1 µM [8]: 90.8% | remaining activity at 0.1 µM [9]: 93.8% | remaining activity at 0.1 µM [10]: 110% | remaining activity at 0.1 µM [11]: 90.5% | remaining activity at 0.1 µM [12]: 82.5% | remaining activity at 0.1 µM [13]: 101% | remaining activity at 0.1 µM [14]: 53.6% | remaining activity at 0.1 µM [15]: 22.6% | remaining activity at 0.1 µM [16]: 80.8% | remaining activity at 0.1 µM [17]: 115% | remaining activity at 0.1 µM [18]: 82.8% | remaining activity at 0.1 µM [19]: 97.6% | remaining activity at 0.1 µM [20]: 97% | remaining activity at 0.1 µM [21]: 73% | remaining activity at 0.1 µM [22]: 83.5% | remaining activity at 0.1 µM [23]: 104% | remaining activity at 0.1 µM [24]: 93%

OCCN1CCN(Cc2ccc(-c3cnc4[nH]cc(-c5cccc(Cl)c5)c4c3)cc2)CC1 [Compound 12k, 2-(4-(4-(3-(3-Chlorophenyl)-1H-pyrrolo[2,3-b]pyridin-5-yl)benzyl)piperazin-1-yl)ethan-1-ol]
remaining activity at 0.1 µM [1]: 98.4% | remaining activity at 0.1 µM [2]: 96.6% | remaining activity at 0.1 µM [3]: 92.6% | remaining activity at 0.1 µM [4]: 106% | remaining activity at 0.1 µM [5]: 92.8% | remaining activity at 0.1 µM [6]: 103% | remaining activity at 0.1 µM [7]: 106% | remaining activity at 0.1 µM [8]: 82.8% | remaining activity at 0.1 µM [9]: 88.7% | remaining activity at 0.1 µM [10]: 110% | remaining activity at 0.1 µM [11]: 90.3% | remaining activity at 0.1 µM [12]: 63.8% | remaining activity at 0.1 µM [13]: 103% | remaining activity at 0.1 µM [14]: 37.2% | fold change in MINK1 activity following 12k exposure relative to 1 ([15]; 0.025 μM): 22.56 fold | remaining activity at 0.1 µM [15]: -0.71% | remaining activity at 0.1 µM [16]: 40.7% | remaining activity at 0.1 µM [17]: 108% | remaining activity at 0.1 µM [18]: 59.5% | remaining activity at 0.1 µM [19]: 65.2% | remaining activity at 0.1 µM [20]: 88.5% | remaining activity at 0.1 µM [21]: 73.2% | remaining activity at 0.1 µM [22]: 41.2% | remaining activity at 0.1 µM [23]: 103% | remaining activity at 0.1 µM [24]: 94.8%
